For experiment [1], the system named is HTB 161. Kind of experiment: Antiproliferative activity in human tumor cell lines, PROTOCOL 1 and PROTOCOL 2. Format: cell-based. The note with it: HTB 161, 48 hours. The protocol: (§1) The assays are identified as follows: PROTOCOLS 1, 2, and 3 are described in greater detail hereinbelow. In general, according to PROTOCOLS 1 and 2, the target ABAE and/or Human Tumor cells are exposed to the compounds of Formula I for 48 hours. PROTOCOL 3 exposes ABAE cells to the compounds for 4 days. A detailed description of the Protocols is as follows: Antiproliferative Activity in Human Tumor Cell Lines The antiproliferative activity of the compounds of Formula I of the present invention is evaluated in a panel comprised of human tumor cell lines. […] Cultures are renewed after 20 passages with cells from a fresh stock of batch-frozen early passage cells. Cell lines are routinely checked for mycoplasma contamination (Genprobe). In a laminar flow hood, cells (1-5×10^4) are plated into 96-well microtiter plates in a volume of 0.1 ml/well with a bulk microtiter dispenser (Denley). […] Compounds are added using a Tomtec dispenser which simultaneously dispenses from one 96-well plate, containing the drug dilutions, to the plates containing the cells. After two days of continuous drug exposure, 50% cold trichloroacetic acid (TCA) is added to 10% final concentration to fix the cells, and after 60 minutes at 4° C., the TCA is aspirated and the plates are washed 5 times with deionized water using a microtiter plate washer. […] A 0.4% solution of the dye, sulforhodamine B, in glacial acetic acid is added to the plates, and the plates are washed 5 times with 1% glacial acetic acid using the automatic plate washed. The bound stain is solubilized with 0.1 ml of 10 mMTris base. The optical densities are read from an automatic spectrophotometric plate reader (Dynatech) directly to a main frame computer (VAX 8600). Positive controls, that include standard chemotherapeutic drugs (i.e., adriamycin, cisplatin, etc.), are included in every experiment. Background optical density measurements (complete media--cells, and complete media+drug-cells) are automatically subtracted from the appropriate control and test wells. Mean values and standard errors are determined from duplicate wells. A measure is also made of the optical density at time when the drugs are added. The number of cells after treatment (P), as % of control, is calculated for every concentration of drug, as follows: [formula] wherein: T is optical density measurement for treated cells after 48 hours; C is optical density measurement for untreated cells after 48 hours; Co is optical density measurement for cells at the time of drug addition. IC50 of Growth inhibition is calculated from the sets of P values using the RS-1 data package (BBN Software). Antiproliferative Activity in Human Tumor and Adult Bovine Aortic Endothelial Cell Lines (ABAE) The antiproliferative activity of the compounds of Formula I is evaluated in a panel comprised of human tumor cell lines as listed in Protocol 1 as well as an adult bovine aortic endothelial cell line (ABAE). This assay is a modification of PROTOCOL 1.

Experiment [2] has as its system A2780S. Described as above. Format: cell-based. As for the experimental part:
as §1

Experiment [3] relates to SW620. The description is as above. Format: cell-based. The protocol:
(§2) The antiproliferative activity of the compounds of Formula I in an Adult Bovine Aortic Endothelial (ABAE) cell line and in Human Tumor cells lines is evaluated in three similar assays that measure growth inhibition. The assays are identified as follows:
(§3) PROTOCOLS 1, 2, and 3 are described in greater detail hereinbelow. In general, according to PROTOCOLS 1 and 2, the target ABAE and/or Human Tumor cells are exposed to the compounds of Formula I for 48 hours. PROTOCOL 3 exposes ABAE cells to the compounds for 4 days. A detailed description of the Protocols is as follows:
(§4) Antiproliferative Activity in Human Tumor Cell Lines
(§5) The antiproliferative activity of the compounds of Formula I of the present invention is evaluated in a panel comprised of human tumor cell lines. The human tumor cell lines are from
(§6) 2) Colon tumors: MIP, CACO2, and SW620.
(§7) All cell lines are maintained in log phase in RPMI 1640 media, supplemented with 5% fetal calf serum, penicillin/streptomycin and 2 mM L-glutamine. Cultures are renewed after 20 passages with cells from a fresh stock of batch-frozen early passage cells. Cell lines are routinely checked for mycoplasma contamination (Genprobe). In a laminar flow hood, cells (1-5×10^4) are plated into 96-well microtiter plates in a volume of 0.1 ml/well with a bulk microtiter dispenser (Denley). […] At this concentration, dimethylsulfoxide has no effect on cell growth. Compounds are added using a Tomtec dispenser which simultaneously dispenses from one 96-well plate, containing the drug dilutions, to the plates containing the cells. After two days of continuous drug exposure, 50% cold trichloroacetic acid (TCA) is added to 10% final concentration to fix the cells, and after 60 minutes at 4° C., the TCA is aspirated and the plates are washed 5 times with deionized water using a microtiter plate washer. The number of cells on the plate are quantitated using a protein dye-binding assay (Monks et al., 1991). A 0.4% solution of the dye, sulforhodamine B, in […] is added to the plates, and the plates are washed 5 times with 1% glacial acetic acid using the automatic plate washed. The bound stain is solubilized with 0.1 ml of 10 mMTris base. The optical densities are read from an automatic spectrophotometric plate reader (Dynatech) directly to a main frame computer (VAX 8600).
(§8) Positive controls, that include standard chemotherapeutic drugs (i.e., adriamycin, cisplatin, etc.), are included in every experiment.
(§9) Background optical density measurements (complete media--cells, and complete media+drug-cells) are automatically subtracted from the appropriate control and test wells. Mean values and standard errors are determined from duplicate wells. A measure is also made of the optical density at time when the drugs are added. The number of cells after treatment (P), as % of control, is calculated for every concentration of drug, as follows: [formula] wherein: T is optical density measurement for treated cells after 48 hours;
(§10) C is optical density measurement for untreated cells after 48 hours;
(§11) Co is optical density measurement for cells at the time of drug addition.
(§12) IC50 of Growth inhibition is calculated from the sets of P values using the RS-1 data package (BBN Software).
(§13) Antiproliferative Activity in Human Tumor and Adult Bovine Aortic Endothelial Cell Lines (ABAE)
(§14) The antiproliferative activity of the compounds of Formula I is evaluated in a panel comprised of human tumor cell lines as listed in Protocol 1 as well as an adult bovine aortic endothelial cell line (ABAE). This assay is a modification of PROTOCOL 1. The modifications include:
(§15) 1) each concentration for each compound is tested in a single well;
(§16) 2) compounds are tested at 20, 4, 0.8, 0.16 microgram/ml and additionally in some experiments at 100 and 0.32 microgram/ml;
(§17) 3) samples are pipetted into a 96-well plate for each of the cell lines by a Beckman Biomek 1000 SL robot; […]

Experiment [4] deals with Human Tumor cell lines. Kind of experiment: Antiproliferative activity in panel of human tumor cell lines (average / panel as a whole), PROTOCOL 1 and PROTOCOL 2. Format: cell-based. The note with it: Homo sapiens; average over the tumor cell lines tested. As for the experimental part:
as §2, §3, §4, §5, §6, §7, §8, §9, §10, §11, §12, §13, §14, §15, §16, §17

Experiment [5] has as its system angiogenesis. The note with it: Brem et al; in words; cited from earlier work.
For experiment [6], the system named is A2780/DDP. Briefly: Antiproliferative activity in human tumor cell lines, PROTOCOL 1 and PROTOCOL 2. Format: cell-based. The protocol: as §1
The subject of experiment [7] is MIP. The experiment is described as above. The note with it: colon tumor cell line MIP, 48 hours. The experiment is classed as cell-based. The protocol: as §2, §3, §4, §5, §6, §7, §8, §9, §10, §11, §12, §13, §14, §15, §16, §17
The test system of experiment [8] is Adult Bovine Aortic Endothelial (ABAE) cell line. Briefly: Antiproliferative activity in Adult Bovine Aortic Endothelial (ABAE) cell line, PROTOCOL 3 (4 days, cell count). The experiment is classed as cell-based. The note with it: for IC50: Bos taurus, 96 h. As for the experimental part:
as §2, §3
Antiproliferative Activity in Adult Bovine Aortic Endothelial (ABAE) Cell Line
ABAE cells are grown in DMEM media (Mediatech, Washington, D.C.) supplemented with 10% calf serum (Hyclone). ABAE cells are plated in 24-well dishes at 8,000 cells/well, followed by the addition of increasing concentrations of 7-halogen-9-[hydrogen or [(substituted glycyl)amido]]-6-demethyl-6-deoxytetracycline. After four days, the cells are detached and counted. […] The growth inhibition (I) as % of control is calculated as follows: [formula] wherein: Nc is the number of cells in untreated wells;
Nt is the number of cells in treated wells;
No is the number of plated cells.
IC50 of growth inhibition is determined from the sets of I values plotted by Kaleidograph software (Abelbeck Software).
Table 1 presents the results depicting the antiproliferative activity of the compounds of Formula I against an ABAE cell line, as evaluated by PROTOCOL 2 and PROTOCOL 3. The results are presented in terms of IC50 and are as follows.

The subject of experiment [9] is CACO2. Kind of experiment: Antiproliferative activity in human tumor cell lines, PROTOCOL 1 and PROTOCOL 2. Format: cell-based. The note with it: Caco-2, colon tumor cell line CACO2, 48 hours, read-out: IC50. As for the experimental part: as §2, §3, §4, §5, §6, §7, §8, §9, §10, §11, §12, §13, §14, §15, §16, §17
The mark [10] stands for this setting: ovarian tumor cell line A2780S, 48 hours, read-out: IC50.
[11] abbreviates: SW-620, colon tumor cell line SW620, 48 hours, read-out: IC50.

SMILES strings stand for the structures. Where a name gives a salt, the structure may show the parent alone. Read-outs that look alike come from different tables or passages of the source.

On to `CN(C)[C@@H]1C(O)=C(C(N)=O)C(=O)[C@@]2(O)C(O)=C3C(=O)c4c(O)c(NC(=O)CNC5CCCC5)cc(I)c4CC3CC12` (stereo partly drawn) [Example 7, [4S-(4',12aα)]-9-[[(Cyclopentylamino)acetyl]amino]-4-(dimethylamino)-1,4,4a,5,5a,6,11,12a-octahydro-3,10,12,12a-tetrahydroxy-7-iodo-1,11-dioxo-2-maphthacenecarboxamide dihydrochloride], for which the IC50 is 1 µg/mL in experiment [1], 2 µg/mL in [2] (setting [10]), 3 µg/mL in experiment [3] (setting [11]) and 2 µg/mL in experiment [4].
In the case of `CN(C)[C@@H]1C(O)=C(C(=O)NCNCCCC[C@H](N)C(=O)O)C(=O)[C@@]2(O)C(O)=C3C(=O)c4c(O)cccc4[C@@](C)(O)[C@H]3C[C@@H]12` [Lymecycline], the inhibition of angiogenesis entry in [5] was “useful as inhibitors of angiogenesis”.
Turning to `CN(C)[C@@H]1C(O)=C(C(N)=O)C(=O)[C@@]2(O)C(O)=C3C(=O)c4c(O)c(NC(=O)CN5CCCC5)cc(I)c4CC3CC12` (stereo partly drawn) [Example 5, [7S-(7α,10aα)]-N-9-[(Aminocarbonyl)-7-(dimethylamino)-5,5a,6,6a,7,10,10a,12-octahydro-1,8,10a,11-tetrahydroxy-4-iodo-10,12-dioxo-2-naphthacenyl]-1-pyrrolidineacetamide dihydrochloride], the IC50 in experiment [1] was determined as 3 µg/mL; in experiment [6] (48 h), 4 µg/mL; in [2] (A2780S, 48 h), 4 µg/mL; in experiment [7] it was 4 µg/mL; in experiment [3] (SW-620, 48 h) it was 4 µg/mL; in [4] it was 3.8 µg/mL.
Take `CN(C)[C@@H]1C(O)=C(C(N)=O)C(=O)[C@@]2(O)C(O)=C3C(=O)c4c(O)ccc(Cl)c4[C@@H](O)[C@H]3C[C@@H]12` [Demeclocycline]: the inhibition of angiogenesis result in experiment [5] is “useful as inhibitors of angiogenesis”.
Consider `CN(C)[C@@H]1C(O)=C(C(N)=O)C(=O)[C@@]2(O)C(O)=C3C(=O)c4c(O)ccc(Cl)c4[C@@](C)(O)[C@H]3C[C@@H]12` [Chlortetracycline], for which the inhibition of angiogenesis entry in [5] is listed as “useful as inhibitors of angiogenesis”.
Consider `CN(C)[C@@H]1C(O)=C(C(N)=O)C(=O)[C@@]2(O)C(O)=C3C(=O)c4c(O)c(NC(=O)CN5CCCCC5)cc(I)c4CC3CC12` (stereo partly drawn) [Example 6, [7S-(7α,10aα)]-N-9-[(Aminocarbonyl)-7-(dimethylamino)-5,5a,6,6a,7,10,10a,12-octahydro-1,8,10a,11-tetrahydroxy-4-iodo-10,12-dioxo-2-naphthacenyl]-1-piperidine-acetamide dihydrochloride], for which the IC50 in experiment [1] was 0.2 µg/mL; in experiment [6] (ovarian tumor cell line /DDP, 48 hours, read-out: IC50) it was 0.8 µg/mL; in [2] (setting [10]) it was 0.2 µg/mL; in experiment [8] (ABAE cells, PROTOCOL 3, 4 days, read-out: IC50 PROTOCOL 3), 2.5 µg/mL; in experiment [8] (FIG. 1, ABAE, 4 day assay (Protocol 3), read-out: inhibits 50% of cell growth at) it was around 2 µg/mL; in experiment [9] it was 4 µg/mL. Moreover, the results for the IC50 in [7], in experiment [3] (setting [11]) and in experiment [4] were 0.6 µg/mL, 0.4 µg/mL and 1 µg/mL, respectively. In experiment [8] (FIG. 1, 4 day assay (Protocol 3), in words), the “activity upon incubation with cells” value is given as “retains its activity”. In addition, in experiment [8] (Table 1, in words), the “activity in preventing the proliferation of ABAE cells compared to Minocycline” value was “increased activity”.

(Values after patent publication US5574026A, “Methods for inhibiting angiogenesis proliferation of endothelial or tumor cells and tumor growth” (American Cyanamid Company, priority 1994, dated 1996).)
